Reference: publication PMC9728921, “Characterization of a KDM5 small molecule inhibitor with antiviral activity against hepatitis B virus” (PLOS ONE, 2022)
“Also recorded” adds a separate entry of the source.

Tests used:
KDM5B = molecular target: T1, KDM5B (Homo sapiens, UniProt Q9UGL1); experiment: KDM5B enzymatic assay (CisBio HTRF); type: biochemical
T1 construct: purchased Reaction Biology Corp (assay run there as a contract service)
Protocol: KDM5A and 5B were tested using CisBio HTRF assay platform by Reaction Biology Corp (Malvern, PA). All concentrations are final unless noted otherwise. Inhibitors were pre-incubated with 2.5 nM KDM5A or 1.2 nM KDM5B in a 5 μL reaction mixture containing 50 mM HEPES (pH 7.5), 50 mM NaCl, 0.01% Tween 20, 0.01% BSA for 15 min temperature. The reaction was initiated by addition of 5 μL of 50 nM Biotin-H3K4me3 and incubated with gentle shaking for 45 min at RT. The reaction was quenched with 10 mM EDTA and 200 mM potassium fluoride. Upon addition of Eu-Antibody and Streptavidine-XL665, the mixture was incubated for 2 hours in the dark. The fluorescence resonance energy transfer was measured using an excitation wavelength of 320 nm and emission wavelength of 665 nm on an Envision plate reader (Perkin Elmer).
(§1) Data was analyzed using GraphPad Prism 6.0 (La Jolla, CA). […] IC50 values were calculated as an average of at least two independent experiments.

NSD2 = molecular target: T2, NSD2 (Homo sapiens, UniProt O96028); experiment: Histone methyltransferase enzymatic assay, NSD2; type: biochemical; conditions: enzyme conc. 10 nM
T2 construct: Full Length; purchased RBC (read as Reaction Biology Corporation, named)
T2 sequence (O96028 whole entry): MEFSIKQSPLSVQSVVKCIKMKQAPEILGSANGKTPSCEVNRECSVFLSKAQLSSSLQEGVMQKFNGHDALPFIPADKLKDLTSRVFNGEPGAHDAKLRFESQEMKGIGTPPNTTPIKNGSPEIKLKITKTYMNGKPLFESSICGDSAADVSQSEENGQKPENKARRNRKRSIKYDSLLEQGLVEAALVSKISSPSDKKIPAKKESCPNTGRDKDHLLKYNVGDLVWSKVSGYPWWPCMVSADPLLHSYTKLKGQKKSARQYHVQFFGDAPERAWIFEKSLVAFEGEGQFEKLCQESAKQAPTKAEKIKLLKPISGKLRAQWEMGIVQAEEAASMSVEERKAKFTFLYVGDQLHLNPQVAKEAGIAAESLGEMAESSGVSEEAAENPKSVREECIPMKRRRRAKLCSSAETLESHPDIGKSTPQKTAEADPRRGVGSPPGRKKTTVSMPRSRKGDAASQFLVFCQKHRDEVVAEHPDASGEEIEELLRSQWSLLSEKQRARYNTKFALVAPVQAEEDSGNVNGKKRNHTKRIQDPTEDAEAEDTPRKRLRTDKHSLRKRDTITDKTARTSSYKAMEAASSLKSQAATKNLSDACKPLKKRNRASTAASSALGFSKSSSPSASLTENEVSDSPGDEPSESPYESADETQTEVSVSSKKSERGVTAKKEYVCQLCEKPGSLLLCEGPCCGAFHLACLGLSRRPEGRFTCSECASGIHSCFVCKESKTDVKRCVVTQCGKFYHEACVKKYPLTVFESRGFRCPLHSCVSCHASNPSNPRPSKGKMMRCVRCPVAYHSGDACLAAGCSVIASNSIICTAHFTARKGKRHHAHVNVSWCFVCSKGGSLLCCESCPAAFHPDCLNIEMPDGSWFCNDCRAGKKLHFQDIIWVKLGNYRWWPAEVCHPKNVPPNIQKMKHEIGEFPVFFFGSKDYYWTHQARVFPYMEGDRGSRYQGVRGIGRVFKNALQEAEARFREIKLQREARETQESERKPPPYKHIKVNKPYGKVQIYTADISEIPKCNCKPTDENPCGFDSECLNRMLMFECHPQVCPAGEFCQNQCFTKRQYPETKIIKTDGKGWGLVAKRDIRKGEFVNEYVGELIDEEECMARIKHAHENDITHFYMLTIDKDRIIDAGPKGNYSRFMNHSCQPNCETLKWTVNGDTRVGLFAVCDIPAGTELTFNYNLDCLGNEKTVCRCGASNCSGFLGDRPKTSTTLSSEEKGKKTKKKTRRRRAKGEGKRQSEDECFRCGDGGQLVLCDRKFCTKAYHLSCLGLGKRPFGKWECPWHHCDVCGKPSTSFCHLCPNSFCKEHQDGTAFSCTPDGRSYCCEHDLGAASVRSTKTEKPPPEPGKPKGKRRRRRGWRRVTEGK
Protocol: Histone methyltransferase assays were performed in 96-well half-area optiplates (PerkinElmer) at room temperature. All concentrations are final unless noted otherwise. Compounds were serially diluted in DMSO and the final DMSO concentration was 1%. A 24 μL reaction mixture contained compound, enzyme, 200 nM of nucleosome or histone substrate, 400 nM ^3H-SAM (83.1 Ci/mmol), 50 mM Tris-HCl (pH 8.0), 50 mM NaCl, 5 mM MgCl2, 1 mM DTT, and 0.01% Tween-20. The plate was sealed, mixed on a Titramax plate shaker at 1200 rpm for 30 sec, and incubated at room temperature for 60 min. The reaction was quenched by addition of 24 μL mixture containing 5 mg/mL PVT-PEI beads and 300 μM unlabeled SAM in water. The plate was sealed, mixed as previously noted, incubated overnight, and read on a TopCount plate reader (PerkinElmer).
as §1

[1] = Cell-associated GS-080 exposure and half-life in PHH (LC-MS); type: in vitro ADME, human
Protocol: PHH were infected with HBV for three days prior to initiation of GS-5801 treatment. PHH were dosed with vehicle or 1 µM GS-5801once for three days (three day exposure; continuous dosing) or once for two hours (two hour exposure; pulse dosing). […] (C) Pharmacokinetic parameters calculated included the half-life (t1/2), maximum concentration (Cmax), and area under the curve (AUClast).

H3K4me3:H3 = experiment: Global H3K4me3:H3 ratio by ELISA in HBV-infected PHH; type: cell-based, human; conditions: single pulse dose; day nine
Protocol: For the pulse dose regimen, medium containing compound was removed after two hours incubation and replaced with fresh maintenance medium every three to four days. Cells in the pulse dose experiment received only one dose of compound (Day = 0). Histones were enriched from tissue and PBMC samples using the AbCam total histone extraction kit (Cambridge, UK; ab113476) according to the manufacturer’s protocol after cell/tissue dissociation with an IKA T10 TURRAX homogenizer (Wilmington, NC; […] Histones were enriched from 500,000 to 750,000 PHH. PHH monolayers were washed once with cold (4°C) 1X DPBS (Dulbecco’s phosphate buffered saline; 21-031-CV, Corning Inc.). Cold triton extraction buffer (TEB): 1X DPBS, 0.5% triton X-100 (Sigma-Aldrich, T9284), 2 mM phenylmethylsulfonyl fluoride (PMSF; Thermo Fisher Scientific, 36978), was added to the cell monolayer at a density of 1 x 10^6 cells/mL. After 10-minute incubation in TEB at 4°C, the cell monolayer was scraped and cells were pelleted by centrifuged at 1200 rpm at 4°C for 10 minutes. […] Total protein concentration of all samples following histone enrichment was determined using a bicinchoninic acid (BCA) assay (Thermo Fisher Scientific; 23225). […] Absorbance of each well was measured at 450 nm within five minutes using a SpectraMax Plus 384 Microplate Reader (Molecular Devices; PLUS 384).

T1 sequence (Q9UGL1 whole entry): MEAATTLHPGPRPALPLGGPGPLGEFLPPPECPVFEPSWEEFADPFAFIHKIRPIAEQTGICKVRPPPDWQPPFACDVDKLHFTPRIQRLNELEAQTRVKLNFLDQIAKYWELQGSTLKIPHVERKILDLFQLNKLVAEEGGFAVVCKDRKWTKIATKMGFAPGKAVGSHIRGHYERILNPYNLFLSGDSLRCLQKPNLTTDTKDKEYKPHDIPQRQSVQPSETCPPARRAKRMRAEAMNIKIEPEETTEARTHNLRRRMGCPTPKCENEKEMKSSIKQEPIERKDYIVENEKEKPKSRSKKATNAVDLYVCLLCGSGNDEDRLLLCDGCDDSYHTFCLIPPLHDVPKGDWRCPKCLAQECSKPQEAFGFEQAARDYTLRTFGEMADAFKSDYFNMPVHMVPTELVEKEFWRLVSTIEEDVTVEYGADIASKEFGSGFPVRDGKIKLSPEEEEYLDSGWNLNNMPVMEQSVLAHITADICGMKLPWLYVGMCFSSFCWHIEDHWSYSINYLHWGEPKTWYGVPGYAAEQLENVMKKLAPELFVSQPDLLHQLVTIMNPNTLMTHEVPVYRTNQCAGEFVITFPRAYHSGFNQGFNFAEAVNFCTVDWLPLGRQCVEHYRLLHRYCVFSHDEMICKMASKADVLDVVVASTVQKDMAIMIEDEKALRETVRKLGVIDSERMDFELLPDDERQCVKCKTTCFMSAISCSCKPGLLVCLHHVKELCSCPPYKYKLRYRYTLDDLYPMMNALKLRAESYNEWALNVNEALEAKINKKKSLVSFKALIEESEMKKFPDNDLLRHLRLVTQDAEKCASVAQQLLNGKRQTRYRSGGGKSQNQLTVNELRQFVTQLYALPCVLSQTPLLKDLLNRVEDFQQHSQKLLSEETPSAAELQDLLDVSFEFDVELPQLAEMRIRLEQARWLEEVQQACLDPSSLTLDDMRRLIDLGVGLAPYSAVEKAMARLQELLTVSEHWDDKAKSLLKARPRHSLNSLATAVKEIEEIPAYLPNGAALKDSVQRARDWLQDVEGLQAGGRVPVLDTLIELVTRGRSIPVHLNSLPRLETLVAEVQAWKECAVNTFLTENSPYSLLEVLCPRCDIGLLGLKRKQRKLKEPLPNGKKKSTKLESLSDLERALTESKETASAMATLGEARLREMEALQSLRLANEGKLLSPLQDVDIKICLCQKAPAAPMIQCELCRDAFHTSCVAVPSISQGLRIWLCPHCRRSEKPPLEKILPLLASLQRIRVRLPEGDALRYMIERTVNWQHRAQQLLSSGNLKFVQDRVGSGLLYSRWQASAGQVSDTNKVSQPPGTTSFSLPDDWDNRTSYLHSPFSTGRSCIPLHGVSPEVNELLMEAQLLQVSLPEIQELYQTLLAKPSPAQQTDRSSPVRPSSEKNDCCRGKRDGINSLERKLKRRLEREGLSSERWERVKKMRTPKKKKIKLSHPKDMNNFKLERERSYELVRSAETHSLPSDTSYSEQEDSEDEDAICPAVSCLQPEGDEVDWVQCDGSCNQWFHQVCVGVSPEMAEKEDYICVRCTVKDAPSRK

In the case of CCN(CCN(C)C)C(=O)CNCc1cc(C(=O)O)ccn1 [GS-080], the “Fold Selectivity Compared to KDM5A” value (KDM5B; IC50 of KDM5B over KDM5A) is reported as 1 fold, the IC50 (KDM5B; enzyme concentration 1.2 nM, IC50 lower than enzyme concentration, likely underestimates potency) is reported as 0.38 nM and the IC50 (NSD2) is reported as greater than 100000 nM. For the same molecule, the “cell-associated GS-080 Cmax and AUClast, pulse compared to continuous dosing” value ([1]; PHH dosed with 1 µM GS-5801, two-hour pulse vs three day exposure) was “two-fold lower Cmax and AUClast values” and the half-life at 1 µM ([1]; human, primary human hepatocytes (PHH), cell-associated, PHH, 1 uM, uninfected PHH) was 42 to 66 h.

For CCOC(=O)c1ccnc(CNCC(=O)N(CC)CCN(C)C)c1 [GS-5801], the “H3K4me3:H3 level” value (H3K4me3:H3) was “almost back to baseline levels; also recorded: near baseline levels”.
